# Target: T1, HCT116 TK (cellular transketolase, colon carcinoma HCT116) (Homo sapiens, UniProt P29401)
# T1 construct: endogenous in cells; host or cells: HCT116 colon carcinoma cells
# T1 sequence (P29401 1-623): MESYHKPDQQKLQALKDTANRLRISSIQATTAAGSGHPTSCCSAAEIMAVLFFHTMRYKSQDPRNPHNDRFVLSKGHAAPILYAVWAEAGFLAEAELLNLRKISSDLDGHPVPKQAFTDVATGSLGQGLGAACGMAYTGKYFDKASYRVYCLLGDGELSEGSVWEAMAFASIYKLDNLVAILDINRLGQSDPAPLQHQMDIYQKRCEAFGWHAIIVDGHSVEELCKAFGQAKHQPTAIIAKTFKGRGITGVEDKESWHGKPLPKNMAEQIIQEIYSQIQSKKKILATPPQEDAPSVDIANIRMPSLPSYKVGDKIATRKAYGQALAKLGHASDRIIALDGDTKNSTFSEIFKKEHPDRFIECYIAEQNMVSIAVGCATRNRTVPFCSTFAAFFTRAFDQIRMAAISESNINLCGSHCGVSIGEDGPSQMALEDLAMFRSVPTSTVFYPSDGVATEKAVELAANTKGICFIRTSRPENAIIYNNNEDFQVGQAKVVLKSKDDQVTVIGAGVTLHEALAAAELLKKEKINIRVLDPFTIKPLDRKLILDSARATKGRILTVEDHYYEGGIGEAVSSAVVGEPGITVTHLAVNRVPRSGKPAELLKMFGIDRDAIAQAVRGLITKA
# Assay: Cellular assay: transketolase activity in lysates of treated HCT116 cells
# Type: cell-based
# Details: colon carcinoma HCT116, thiamine-free DMEM, 48 hours treatment, mean
# Description: Log-phase cells were trypsinized, washed and resuspended in thiamine-free DMEM. Optimization of the initial cell counts was carried out for each cell line prior to IC50 measurements. […] Using this initial cell count, IC50 could be monitored for six days.
# Media containing 8,000 cells (95 μl) were used to seed individual wells in a 96-well clear-bottom cell cultured-treated sterile plate. Inhibitor compounds were dissolved in 100% DMSO as 10 mM solutions. Serial dilutions were then made in 100% DMSO to make up a 100× stock, then diluted to 20× in double-deionized H2O (ddH2O). Twenty-four hours after seeding, 5 μl of 20× inhibitor compound stock solution was added to the cells so that the final concentration of DMSO was 1%. Media were changed after 24 hours. Forty-eight hours after inhibitor compound treatment, the plates were inverted to remove media and blotted on a paper towel. The plates were then either subjected to enzymatic reactions immediately or were frozen at −20° C. for future assays.
# Lysis buffer (20 mM HEPES, pH 7.5, 1 mM EDTA, 0.2 g/l Triton X-100® and 0.2 g/L sodium deoxycholate, supplemented with 1 mM DTT and 1 mM PMSF just before use, 80 μl) were added to each well of the assay plate and allow cell lysis at RT with shaking. Then 15 ul of 5× assay buffer containing final concentrations of 50 mM HEPES, 40 mM KCl, 2.5 mM MgCl2, 5 mM NaArsenate, 1 mM NAD, 2 unit/ml glyceraldehyde-3-phosphate dehydrogenase (GAPDH) was added to the 80 ul of lysate. Reaction kinetics were monitored on a fluorescent plate reader to allow any possible background activity via GAPDH to burn out. Then 5 ul of substrate mix containing final concentrations of 0.5 mM ribose-5-phosphate and 0.5 mM xylulose-5-phosphate was added to initiate the reaction. Monitor reaction kinetics were monitored using a fluorescent plate reader and the slope of the initial linear range was recorded as the velocity of the reaction (FU/min). Enzymatic inhibition was expressed as percent of control wells that were not treated with compounds. The values (y) were plotted as function of the log concentration (x) and fitted to a sigmoidal dose-response curve with variable slopes that bears the equation: y=bottom+(top−bottom)/(1+10^((log EC50-x)*hillslope)).
row,IC50,Structure (SMILES)
1,25 nM,CCCSS/C(CCO)=C(/C)N(C=O)Cc1ccc(C)nc1N
2,253 nM,CCC(C)SS/C(CCO)=C(/C)N(C=O)Cc1ccc(C)nc1N (stereo not drawn)
3,24 nM,C/C(=C(\CCO)SSCC1CCCO1)N(C=O)Cc1ccc(C)nc1N (stereo not drawn)
4,13 nM,C/C(=C(\CCO)SSCCO)N(C=O)Cc1ccc(C)nc1N
5,52 nM,C/C(=C(\CCO)SSCCC(=O)O)N(C=O)Cc1ccc(C)nc1N
6,198 nM,C/C(=C(\CCO)SSCCN1CCCC1)N(C=O)Cc1ccc(C)nc1N
7,70 nM,C/C(=C(\CCO)SSCCN1CCOCC1)N(C=O)Cc1ccc(C)nc1N
8,7730 nM,CCCSS/C(CCO)=C(/C)N(C=O)Cc1ccc(Cl)nc1N
9,102000 nM,Cc1ccc(CN(C=O)/C=C(/CCO)SS/C(=C\N(C=O)Cc2ccc(C)nc2N)CCO)c(N)n1
10,479 nM,C/C(=C(\CCO)SS/C(CCO)=C(/C)N(C=O)Cc1cccnc1N)N(C=O)Cc1cccnc1N
11,10 nM,C/C(=C(\CCO)SS/C(CCO)=C(/C)N(C=O)Cc1ccc(C)nc1N)N(C=O)Cc1ccc(C)nc1N
12,32 nM,CC(=O)N(Cc1ccc(C)nc1N)/C(C)=C(/CCO)SS/C(CCO)=C(/C)N(Cc1ccc(C)nc1N)C(C)=O
13,8 nM,CC(=O)OCC/C(SS/C(CCOC(C)=O)=C(/C)N(C=O)Cc1ccc(C)nc1N)=C(\C)N(C=O)Cc1ccc(C)nc1N
14,5.27 nM,C/C(=C(\CCO)SS/C(CCO)=C(/C)N(C=O)Cc1ccc(Cl)nc1N)N(C=O)Cc1ccc(Cl)nc1N
15,6460 nM,CCCCS/C(CCO)=C(/C)N(C=O)Cc1ccc(C)nc1N
16,3700 nM,C/C(=C(\CCO)SCCN1CCCCC1)N(C=O)Cc1ccc(C)nc1N
17,1870 nM,C/C(=C(\CCO)SCCS(=O)(=O)c1ccccc1)N(C=O)Cc1ccc(C)nc1N
18,116 nM,C/C(=C(\CCO)SCOC(=O)C(C)(C)C)N(C=O)Cc1ccc(C)nc1N
19,25 nM,CC(=O)OCC/C(SCOC(=O)C(C)(C)C)=C(\C)N(C=O)Cc1ccc(C)nc1N
20,50 nM,CNC(=O)OCS/C(CCO)=C(/C)N(C=O)Cc1ccc(C)nc1N
21,507 nM,C/C(=C(\CCO)SCOC(=O)N(C)C)N(C=O)Cc1ccc(C)nc1N
22,26300 nM,CC(=O)OCC/C(SCOC(=O)N(C)C)=C(\C)N(C=O)Cc1ccc(C)nc1N
23,19400 nM,CC(=O)Nc1nc(C)ccc1CN(C=O)/C(C)=C(/CCOC(C)=O)SCOC(=O)N(C)C
24,2480 nM,CC(=O)Nc1nc(C)ccc1CN(C=O)/C(C)=C(/CCOC(C)=O)SCOC(=O)C(C)(C)C
25,50 nM,CC(=O)OCC/C(SC(C)=O)=C(\C)N(C=O)Cc1ccc(C)nc1N
26,108 nM,CC(=O)OCC/C(SC(=O)c1ccccc1)=C(\C)N(C=O)Cc1ccc(C)nc1N
27,28 nM,C/C(=C(\CCOC(=O)c1ccccc1)SC(=O)c1ccccc1)N(C=O)Cc1ccc(C)nc1N
28,15 nM,C/C(=C1\CCOC(=O)S1)N(C=O)Cc1ccc(C)nc1N

row,Structure (SMILES),IC50
1,CCCSS/C(CCOP(=O)(OCC)OCC)=C(/C)N(C=O)Cc1ccc(C)nc1N,1040 nM
2,CCOP(=O)(OCC)OCC/C(SC(=O)c1ccccc1)=C(\C)N(C=O)Cc1ccc(C)nc1N,7160 nM
